Measurements reported in patent US4923878A, “Quinolizine sulfonamides used against certain neoplastic disease states” (Merck & Co., Inc., priority 1988, dated 1990).

How the values were obtained:
[1] = test system: A498; assay: MTT-microculture tetrazolium assay, growth inhibition of renal A498 cells; type: cell-based; settings: Homo sapiens, 144 h; Renal cell line A498; 6 days at 37° C.; 0.5% DMSO
Excerpt: (§1) Tests carried out in accordance with the procedures described in Cancer Research 48, 589-601, February 1988, Feasibility of Drug Screening with Panels of Human Tumor Cell Lines Using a Microculture Tetrazolium Assay--Shoemaker et al., and Cancer Research 48, 4827-4833, September 1988, Evaluation of a Soluble Tetrazolium/Formazan Assay for Cell Growth and Drug Sensitivity in Culture using Human and other Tumor Cell Lines--Shoemaker et al. A brief description of this procedure follows. For further details refer to the above identified articles.
(§2) The procedure was carried out on cell lines from various disease types. Cell lines were maintained as stocks in RPMI 1640 (Quality Biological, Gaithersburg, Md.) supplemented with 10% fetal bovine serum (Sterile Systems, Logon, UT) and 2mM L-glutamine (Central Medium Laboratory, NCI FCRF). Cell cultures were passaged once or twice weekly using trypsin-EDTA(Central Medium Laboratory, NCI-FCRF) to detach the cells from their culture flasks. […]
(§3) Cellular growth in the presence or absence of the test compound was determined using the MTT-microculture tetrazolium assay. In the MTT assay rapidly growing cells are harvested, counted and inoculated at the appropriate concentrations (100-μl volume) into 96-well microtiter plates using a multichannel pipet. […]

[2] = test system: cell lines derived from renal carcinomas; assay: MTT-microculture tetrazolium assay, growth inhibition of cell lines derived from renal carcinomas; type: cell-based, human; settings: at the indicated concentrations; 6 days at 37° C.
Excerpt: as §1, §2, §3

[3] = test system: SN-12KI; assay: MTT-microculture tetrazolium assay, growth inhibition of renal SN-12KI cells; type: cell-based; settings: Homo sapiens, 144 h; Renal cell line SN-12KI; 6 days at 37° C.; 0.5% DMSO
Excerpt: as §1, §2, §3

[4] = test system: A704; assay: MTT-microculture tetrazolium assay, growth inhibition of renal A704 cells; type: cell-based; settings: Homo sapiens, 144 h; Renal cell line A704; 6 days at 37° C.; 0.5% DMSO
Excerpt: as §1, §2, §3

**Q.** Which results are given for `CS(=O)(=O)NCCN[C@@H]1CCN2CCc3c(oc4ccccc34)[C@@H]2C1` (relative stereo) [(2RS,12bSR)-N-[2-(1,3,4,6,7,12b-hexahydro-2H-benzo[b]furo[2,3-a]quinolizin-2-yl)]-N-2-((methanesulfonyl)ethyl)amine]?
**A.** IC50 [1]: 1600 nM; growth inhibition of cell lines derived from renal carcinomas (in words) [2]: selectively inhibit the growth of cell lines derived from renal carcinomas; IC50 [3]: 6300 nM; IC50 [4]: 160 nM
